# Measured values: ChEMBL document CHEMBL1909533, “Micelles catalyzed chemoselective synthesis 'in water' and biological evaluation of oxygen containing hetero-1,4-naphthoquinones as potential antifungal agents” (2011)
# Legend:
# Format in all cases: functional
# Escherichia coli = experiment: Antibacterial activity against Escherichia coli by micro-broth dilution method
# Pseudomonas aeruginosa = experiment: Antibacterial activity against Pseudomonas aeruginosa by micro-broth dilution method
# Klebsiella pneumoniae = experiment: Antibacterial activity against Klebsiella pneumoniae ATCC 27736 by micro-broth dilution method
# Staphylococcus aureus = experiment: Antibacterial activity against Staphylococcus aureus ATCC 25923 by micro-broth dilution method
# Aspergillus fumigatus = experiment: Antifungal activity against Aspergillus fumigatus by broth microdilution method
# Candida parapsilosis [1] = experiment: Antifungal activity against Candida parapsilosis by broth microdilution method; conditions: Lodderomyces parapsilosis
# Candida albicans [2] = experiment: Antifungal activity against Candida albicans by broth microdilution method
# Sporothrix schenckii = experiment: Antifungal activity against Sporothrix schenckii by broth microdilution method
# Cryptococcus neoformans [3] = experiment: Antifungal activity against Cryptococcus neoformans by broth microdilution method
# [4] = tested on: Trichophyton mentagrophytes; experiment: Antifungal activity against Trichophyton mentagrophytes by broth microdilution method
# [5] = tested on: Trichophyton mentagrophytes; experiment: Ratio of amphotericin-B MIC50 to compound MIC50 for Trichophyton mentagrophytes
# [6] = tested on: Trichophyton mentagrophytes; experiment: Ratio of fluconazole MIC50 to compound MIC50 for Trichophyton mentagrophytes
# Candida albicans [7] = experiment: Ratio of miconazole MIC50 to compound MIC50 for Candida albicans
# Candida parapsilosis [8] = experiment: Ratio of 2-chloro-3-(4-hydroxyphenylamino)naphthalene-1,4-dione MIC50 to compound MIC50 for Candida parapsilosis
# Candida parapsilosis [9] = experiment: Ratio of 2-Chloro-3-phenylsulfanyl-[1,4]naphthoquinone MIC50 to compound MIC50 for Candida parapsilosis
# Cryptococcus neoformans [10] = experiment: Ratio of miconazole MIC50 to compound MIC50 for Cryptococcus neoformans
Molecule,MIC (Escherichia coli) [µg/mL],MIC (Pseudomonas aeruginosa) [µg/mL],MIC (Klebsiella pneumoniae) [µg/mL],MIC (Staphylococcus aureus) [µg/mL],MIC (Aspergillus fumigatus) [µg/mL],MIC (Candida parapsilosis [1]) [µg/mL],MIC (Candida albicans [2]) [µg/mL],MIC (Sporothrix schenckii) [µg/mL],MIC (Cryptococcus neoformans [3]) [µg/mL],MIC [4] [µg/mL],Ratio [5],Ratio [6],Ratio (Candida albicans [7]),Ratio (Candida parapsilosis [8]),Ratio (Candida parapsilosis [9]),Ratio (Cryptococcus neoformans [10])
NC[C@H]1O[C@H](O[C@H]2[C@H](O)[C@@H](O[C@H]3O[C@H](CO)[C@@H](O)[C@H](N)[C@H]3O)[C@H](N)C[C@@H]2N)[C@H](O)[C@@H](O)[C@@H]1O [KANAMYCIN],16,32,> 128,2,,,,,,,,,,,,
O=C1C(Cl)=C(Oc2ccccc2OC2=C(Cl)C(=O)c3ccccc3C2=O)C(=O)c2ccccc21,> 50,> 50,> 50,> 50,> 50,50,50,25,> 50,50,,,,,,
Cc1ccc(OC2=C(Nc3ccccc3)C(=O)c3ccccc3C2=O)cc1,50,> 50,> 50,50,50,12.5,12.5,1.56,12.5,0.78,2,2,,,,
Cc1ccc(OC2=C(Cl)C(=O)c3ccccc3C2=O)cc1,25,> 50,> 50,12.5,25,3.12,6.25,0.78,12.5,1.56,,,4,2,2,
Cc1ccc(OC2=C(Sc3ccccc3)C(=O)c3ccccc3C2=O)cc1,> 50,> 50,> 50,25,> 50,12.5,25,1.56,12.5,0.78,2,2,,,,
O=c1c2oc3ccccc3oc=2c(=O)c2ccccc12,50,> 50,> 50,25,25,3.12,6.25,0.78,12.5,1.56,,,4,2,2,
NYSTATIN,,,,,,,7.8,13.2,3.5,,,,,,,
COc1ccc(OC2=C(Cl)C(=O)c3ccccc3C2=O)cc1,> 50,> 50,> 50,50,50,6.25,12.5,1.56,12.5,1.56,,,2,,,
NCC[C@H](O)C(=O)N[C@@H]1C[C@H](N)[C@@H](O[C@H]2O[C@H](CN)[C@@H](O)[C@H](O)[C@H]2O)[C@H](O)[C@H]1O[C@H]1O[C@H](CO)[C@@H](O)[C@H](N)[C@H]1O [AMIKACIN],1,1,2,16,,,,,,,,,,,,
OC(Cn1cncn1)(Cn1cncn1)c1ccc(F)cc1F [FLUCONAZOLE],,,,,2,1,1,2,0.5,1.56,,,,,,
O=C1C=C(Sc2ccccc2)C(=O)c2ccccc21,,,,,25,,12.5,,1.56,0.78,,,,,,
NC[C@H]1O[C@H](O[C@H]2[C@H](O)[C@@H](O[C@H]3O[C@H](CO)[C@@H](O)[C@H](N)[C@H]3O)[C@H](N)C[C@@H]2N)[C@H](N)C[C@@H]1O [TOBRAMYCIN],0.5,1,4,0.25,,,,,,,,,,,,
Cc1cc(C)cc(OC2=C(Cl)C(=O)c3ccccc3C2=O)c1,50,> 50,> 50,25,50,3.12,12.5,1.56,12.5,1.56,,,,2,2,
Cc1ccc(OC2=C(Sc3ccc(C)cc3)C(=O)c3ccccc3C2=O)cc1,> 50,> 50,> 50,12.5,> 50,25,25,3.12,12.5,1.56,,,,,,
C[C@@H]1[C@H](O)[C@@H](C)/C=C/C=C/C=C/C=C/C=C/C=C/C=C/[C@H](O[C@@H]2O[C@H](C)[C@@H](O)[C@H](N)[C@@H]2O)C[C@@H]2O[C@](O)(C[C@@H](O)C[C@@H](O)[C@H](O)CC[C@@H](O)C[C@@H](O)CC(=O)O[C@H]1C)C[C@H](O)[C@H]2C(=O)O [AMPHOTERICIN B],,,,,,,0.39,,0.78,1.56,,,,,,
GENTAMICIN,0.18,0.39,0.78,0.78,,,,,,,,,,,,
O=C1C(Cl)=C(Oc2ccccc2)C(=O)c2ccccc21,> 50,> 50,> 50,50,50,12.5,12.5,3.12,6.25,0.78,2,2,,,,2
O=C1C(Cl)=C(Nc2ccc(O)cc2)C(=O)c2ccccc21,,,,,3.12,6.25,1.56,1.56,0.78,1.56,,,,,,
O=C1C(Cl)=C(Oc2cccc3ccccc23)C(=O)c2ccccc21,50,> 50,> 50,25,> 50,12.5,12.5,1.56,25,1.56,,,2,,,
Cc1cc2c(cc1OC1=C(O)C(=O)c3ccccc3C1=O)C(=O)c1ccccc1C2=O [NEWBOULDIAQUINONE A],,,,,,,4.88,,,,,,,,,
O=C1C(Cl)=C(Oc2ccc(Cl)cc2)C(=O)c2ccccc21,> 50,> 50,> 50,50,> 50,6.25,12.5,1.56,12.5,1.56,,,2,,,
Clc1ccc(COC(Cn2ccnc2)c2ccc(Cl)cc2Cl)c(Cl)c1 (stereo unspecified) [MICONAZOLE],,,,,12.5,,25,,12.5,< 0.78,,,,,,
O=C1C(Cl)=C(Oc2ccc3ccccc3c2)C(=O)c2ccccc21,> 50,> 50,> 50,> 50,50,> 50,> 50,> 50,> 50,50,,,,,,
